Assay results from patent US5905077A, “Inhibitors of HIV protease useful for the treatment of AIDS” (Eli Lilly and Company, priority 1997, dated 1999).
Values after ≈ are worked out from the molar mass of the structure shown.

The compounds below were run against T1, HIV-1 protease (Human immunodeficiency virus type 1 group M subtype B, UniProt P04585) (assay: biochemical). Settings: not given.
T1 construct: Purified HIV-1 protease was obtained as described above; made in house; host or cells: E. coli K12 L507/pHP10D (NRRL B-18560)
Format: biochemical
Protocol: E. Fluorescence HIV-1 Protease Inhibitor Assay
The following buffers and solutions are used in the Fluorescence HIV-1 Protease Inhibitor Assay:
To each well of a round bottom, 96-well plate is added 20 μL of the Enzyme Solution followed by 10 μL of the compound to be evaluated in a 20% aqueous dimethylsulfoxide solution. Purified HIV-1 protease was obtained as described above. The resulting solution is incubated for one hour at room temperature and then 20 μL of a solution containing the substrate, prepared above, in MES-ALB buffer (1.5 μl/mL) is added to each well. The solutions are then incubated for 16 hours at room temperature and then each well is diluted with 150 μL of MES-ALB buffer.
To each well of a second round bottom, 96-well Pandex plate is added 25 μL of the Avidin Coated Beads Solution. Then, to each well is added 25 μL of the diluted incubation solutions, prepared above. The solutions are mixed thoroughly and the plates are loaded into a Pandex® machine, washed, evacuated and read. Sample detection was performed by excitation at 485 nm, reading the resulting epifluorescence at 535 nm.

Structure (SMILES)	IC50
CC(=O)N[C@H](CS(=O)(=O)c1ccc2ccccc2c1)C(=O)N[C@@H](Cc1ccccc1)[C@H](O)CN1C[C@H]2CCCC[C@H]2C[C@H]1C(=O)NC(C)(C)C [Example 36, [2R-(2R*,3R*,6R*,3'S*,4a'S*,8a'S*)]-N(t-Butyl)-2'-[2-hydroxy-3-phenylmethyl-4-aza-5-oxo-6-N(ethanoyl)amino-7-naphth-2ylsulfonyl]heptyl decahydroisoquinoline-3'-carboxamide]	0.426 nM
CC(C)(C)NC(=O)[C@@H]1C[C@@H]2CCCC[C@@H]2CN1C[C@@H](O)[C@H](Cc1ccccc1)NC(=O)[C@@H](CSc1ccc(F)cc1)NS(C)(=O)=O [Example 37, [2R-(2R*,3R*,6R*,3'S*,4a'S*,8a'S*)]-N(t-Butyl)-2'-[2-hydroxy-3-phenylmethyl-4-aza-5-oxo-6-N(methylsulfonyl)amino-7-p-fluoro-phenylthio]heptyl decahydroisoquinoline-3'-carboxamide]	5.32 nM
CC(C)(C)NC(=O)[C@@H]1C[C@@H]2CCCC[C@@H]2CN1C[C@@H](O)[C@H](Cc1ccccc1)NC(=O)[C@@H](C[S+]([O-])c1ccc(F)cc1)NS(C)(=O)=O (stereo partly drawn) [Example 38, [2R-(2R*,3R*,6R*,3'S*,4a'S*,8a'S*)]-N(t-Butyl)-2'-[2-hydroxy-3-phenylmethyl-4-aza-5-oxo-6-N(methylsulfonyl)amino-7-p-fluoro-phenylsulfinyl]heptyl decahydroisoquinoline-3'-carboxamide]	0.722 nM
CC(C)(C)NC(=O)[C@@H]1C[C@@H]2CCCC[C@@H]2CN1C[C@@H](O)[C@H](Cc1ccccc1)NC(=O)[C@@H](CS(=O)(=O)c1ccc(F)cc1)NS(C)(=O)=O [Example 39, [2R-(2R*,3R*,6R*,3'S*,4a'S*,8a'S*)]-N(t-Butyl)-2'-[2-hydroxy-3-phenylmethyl-4-aza-5-oxo-6-N(methylsulfonyl)amino-7-p-fluoro-phenylsulfonyl]heptyl decahydroisoquinoline-3'-carboxamide]	0.846 nM
CC(C)(C)NC(=O)[C@@H]1C[C@@H]2CCCC[C@@H]2CN1C[C@@H](O)[C@H](Cc1ccccc1)NC(=O)[C@@H](CS(=O)(=O)c1ccc(F)cc1)NS(C)(=O)=O [Example 40, [2R-(2R*,3R*,6R*,3'S*,4a'S*,8a'S*)]-N(t-Butyl)-2'-[2-hydroxy-3-phenylmethyl-4-aza-5-oxo-6-N(methylsulfonyl)amino-7-p-fluoro-phenylsulfonyl]heptyl decahydroisoquinoline-3'-carboxamide]	0.635 nM
CC(C)(C)NC(=O)[C@@H]1C[C@@H]2CCCC[C@@H]2CN1C[C@@H](O)[C@H](Cc1ccccc1)NC(=O)[C@@H](CSc1ccc2ccccc2c1)NS(C)(=O)=O [Example 41, [2R-(2R*,3R*,6R*,3'S*,4a'S*,8a'S*)]-N(t-Butyl)-2'-[2-hydroxy-3-phenylmethyl-4-aza-5-oxo-6-N(methylsulfonyl)amino-7-naphth-2-ylthio]heptyl decahydroisoquinoline-3'-carboxamide]	7.76 nM
CC(C)(C)NC(=O)[C@@H]1C[C@@H]2CCCC[C@@H]2CN1C[C@@H](O)[C@H](Cc1ccccc1)NC(=O)[C@@H](C[S+]([O-])c1ccc2ccccc2c1)NS(C)(=O)=O (stereo partly drawn) [Example 42, [2R-(2R*,3R*,6R*,3'S*,4a'S*,8a'S*)]-N(t-Butyl)-2'-[2-hydroxy-3-phenylmethyl-4-aza-5-oxo-6-N(methylsulfonyl)amino-7-naphth-2-ylsulfinyl]heptyl decahydroisoquinoline-3'-carboxamide]	0.621 nM

Next, values leading:

IC50	Structure (SMILES)
1.23 nM	CC(C)(C)NC(=O)[C@@H]1CN(Cc2cccnc2)CCN1C[C@@H](O)[C@H](Cc1ccccc1)NC(=O)[C@@H](CS(=O)(=O)c1ccc(F)cc1)NS(C)(=O)=O (relative stereo) [Example 46]
0.202 nM	CC(C)(C)NC(=O)[C@@H]1C[C@@H]2CCCC[C@@H]2CN1C[C@@H](O)[C@H](Cc1ccccc1)NC(=O)[C@@H](CS(=O)(=O)c1ccc2ccccc2c1)NS(C)(=O)=O [Example 44, [2R-(2R*,3R*,6R*,3'S*,4a'S*,8a'S*)]-N(t-Butyl)-2'-[2-hydroxy-3-phenylmethyl-4-aza-5-oxo-6-N(methylsulfonyl)amino-7-naphth-2-ylsulfonyl]heptyl decahydroisoquinoline-3'-carboxamide]
10.9 nM	CC(C)(C)NC(=O)[C@@H]1C[C@@H]2CCCC[C@@H]2CN1C[C@@H](O)[C@H](CSc1ccccc1)NC(=O)[C@@H](CS(=O)(=O)c1ccc(F)cc1)NS(C)(=O)=O [Example 47]
1.1 nM	CC(=O)N[C@H](CSCc1ccccc1)C(=O)N[C@@H](Cc1ccccc1)[C@H](O)CN1C[C@H]2CCCC[C@H]2C[C@H]1C(=O)NC(C)(C)C [Example 49, [2R-(2R*,3R*,6R*,3'S*,4a'S*,8a'S*)]-N(t-Butyl)-2'-[2-hydroxy-3-phenylmethyl-4-aza-5-oxo-6-N(ethanoyl)amino-7-phenylmethylthio]heptyl decahydroisoquinoline-3'-carboxamide]

Same assay, conditions: pH 5.5

IC50	Structure (SMILES)
1.1 nM	CC(=O)NC(CSCc1ccccc1)C(=O)NC(Cc1ccccc1)C(O)CN1CC2CCCCC2CC1C(=O)NC(C)(C)C (stereo not drawn) [Example 33, [2R-(2R*,3R*,6R*,3'S*,4a'S*,8a'S*)]-N(t-Butyl)-2'-[2-hydroxy-3-phenylmethyl-4-aza-5-oxo-6-N(ethanoyl)amino-7-phenylmethylthio]heptyl decahydroisoquinoline-3'-carboxamide]

Same assay, conditions: read-out: Fluorescence Assay IC65 (65% inhibition at 0.16 ng/mL)

IC65	Structure (SMILES)
0.16 ng/mL (≈ 0.207 nM)	CC(C)(C)NC(=O)[C@@H]1C[C@@H]2CCCC[C@@H]2CN1C[C@@H](O)[C@H](CSc1ccccc1)NC(=O)[C@@H](CS(=O)(=O)c1ccc2ccccc2c1)NS(C)(=O)=O [Example 48]
